Read-outs that look alike come from different tables or passages of the source.
Target: T1, purified recombinant human PARP (Homo sapiens, UniProt P09874)
T1 construct: purchased Trevigan (Gaithersburg, Md.)
Assay: PARP enzyme assay (IC50)
Assay type: biochemical
Conditions: approximate IC50 values, [3H]NAD
Experimental: The reaction is initiated by adding enzyme and incubating the mixture at 25° C. After 2 minutes of incubation, the reaction is terminated by adding 500 microliters of ice cold 30% (w/v) trichloroacetic acid. The precipitate formed is transferred onto a glass fiber filter Packard Unifilter-GF/C) and washed three times with 70% ethanol. After the filter is dried, the radioactivity is determined by scintillation counting.

T1 sequence (P09874 whole entry): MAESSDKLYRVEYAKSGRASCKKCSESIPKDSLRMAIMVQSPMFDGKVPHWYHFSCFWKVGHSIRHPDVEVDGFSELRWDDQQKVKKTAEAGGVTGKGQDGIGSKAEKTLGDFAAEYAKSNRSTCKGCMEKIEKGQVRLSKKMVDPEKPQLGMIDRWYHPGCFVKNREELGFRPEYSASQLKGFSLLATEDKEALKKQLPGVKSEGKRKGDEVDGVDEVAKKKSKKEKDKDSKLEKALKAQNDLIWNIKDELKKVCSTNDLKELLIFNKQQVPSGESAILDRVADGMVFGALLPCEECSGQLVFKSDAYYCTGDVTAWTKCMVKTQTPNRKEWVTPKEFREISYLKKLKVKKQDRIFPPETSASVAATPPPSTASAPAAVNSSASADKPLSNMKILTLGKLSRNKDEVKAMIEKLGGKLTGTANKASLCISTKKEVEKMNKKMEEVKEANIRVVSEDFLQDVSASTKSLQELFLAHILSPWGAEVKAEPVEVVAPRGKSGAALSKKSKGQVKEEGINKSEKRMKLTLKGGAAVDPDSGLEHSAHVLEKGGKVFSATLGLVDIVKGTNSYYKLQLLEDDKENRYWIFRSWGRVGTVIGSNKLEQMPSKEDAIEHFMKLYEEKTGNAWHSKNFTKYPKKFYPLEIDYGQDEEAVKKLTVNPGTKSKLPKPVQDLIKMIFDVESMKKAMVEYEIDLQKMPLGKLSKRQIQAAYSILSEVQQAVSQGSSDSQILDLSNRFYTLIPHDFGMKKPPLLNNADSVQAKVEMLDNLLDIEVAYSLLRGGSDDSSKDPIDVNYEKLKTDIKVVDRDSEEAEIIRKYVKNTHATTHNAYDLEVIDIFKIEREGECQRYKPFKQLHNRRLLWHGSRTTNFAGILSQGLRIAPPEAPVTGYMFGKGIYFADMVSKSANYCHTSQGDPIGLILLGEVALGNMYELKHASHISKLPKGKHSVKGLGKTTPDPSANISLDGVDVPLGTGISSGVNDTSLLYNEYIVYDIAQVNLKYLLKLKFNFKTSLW

`CN(C)CCNC(=O)c1cccc(-c2nc3cccc4c3n2CCNC4=O)c1` gave an IC50 (read-out: IC50) of 0.246 µM.
With `O=C1NCCn2c(-c3cc(F)cc(F)c3)nc3cccc1c32` the IC50 (read-out: IC50) was 0.061 µM.
Compound `O=C(CN1CCC(N2CCCC2)CC1)Nc1cnc2c(c1)[nH]c(=O)c1ccccc12` has an IC50 (read-out: IC50) of 0.134 µM.
For `CN(C)CCN(C)Cc1nc2cccc3c2n1CCNC3=O`, the IC50 (read-out: IC50) was 0.288 µM.
Compound `O=c1[nH]c2ccc(N3CCN(CC4CCCO4)CC3)nc2c2ccccc12` (centres unmarked) has an IC50 (read-out: IC50) of 0.179 µM.
`O=c1[nH]c2ccc(OCc3ccccc3)nc2c2ccccc12` was tested, and the IC50 (read-out: IC50) was 20 µM.
`O=C1NN=Cc2c(-c3ccc(F)cc3)[nH]c3cccc1c23` was tested, and the IC50 (read-out: IC50) was 0.073 µM.
Work on `O=C(O)c1ccc(-c2nc3cccc4c3n2CCNC4=O)cc1` yielded an IC50 (read-out: IC50) of 1.19 µM.
In the case of `O=C1NCCn2c(-c3cc(O)cc(O)c3)nc3cccc1c32`, the IC50 (read-out: IC50) is reported as 0.089 µM.
In the case of `Cc1ccc(-c2nc3cccc4c3n2CCNC4=O)cc1`, the IC50 (read-out: IC50) is reported as 0.11 µM.
In the case of `O=C1NN=C(CN2CCN(c3ccccn3)CC2)c2c[nH]c3cccc1c23` [drawing 106], the IC50 (read-out: IC50) is reported as 0.037 µM.
`O=C1NCCn2c(-c3ccc4ccccc4c3)nc3cccc1c32` gave an IC50 (read-out: IC50) of 0.032 µM.
Compound `CCCCCCN(CCCCCC)Cc1nc2cccc3c2n1CCNC3=O` has an IC50 (read-out: IC50) of 0.915 µM.
With `CCCN(CCC)Cc1nc2cccc3c2n1CCNC3=O` the IC50 (read-out: IC50) was 0.204 µM.
`CCC(=O)Nc1cnc2c(c1)[nH]c(=O)c1ccccc12` gave an IC50 (read-out: IC50) of 0.111 µM.
In the case of `COc1ccc2[nH]c(=O)c3ccccc3c2n1`, the IC50 (read-out: IC50) is reported as 0.216 µM.
In the case of `O=C1NCCn2c(-c3ccc(-c4cccc(Cl)c4)o3)nc3cccc1c32`, the IC50 (read-out: IC50) is reported as 0.2 µM.
For `O=C1NN=C(CN2CCCCC2)c2c[nH]c3cccc1c23`, the IC50 (read-out: IC50) was 0.027 µM.
For `O=C1NCCn2c(CN3CCOCC3)nc3cccc1c32`, the IC50 (read-out: IC50) was 0.523 µM.
In the case of `O=C1NN=C(CN2CCC(N3CCCC3)CC2)c2c[nH]c3cccc1c23`, the IC50 (read-out: IC50) is reported as 0.098 µM.
In the case of `O=c1[nH]c2ccc(N3CCNCC3)nc2c2ccccc12`, the IC50 (read-out: IC50) is reported as 0.045 µM.
Work on `O=C1NC=C(Br)c2c[nH]c3cccc1c23` yielded an IC50 (read-out: IC50) of 0.061 µM.
`CCCCCN(CCCCC)Cc1nc2cccc3c2n1CCNC3=O` was tested, and the IC50 (read-out: IC50) was 0.915 µM.
In the case of `O=C1NN=C(Cc2ccccc2)c2c[nH]c3cccc1c23`, the IC50 (read-out: IC50) is reported as 0.064 µM.
`CC(C)(C)OC(=O)n1cc2c3c(cccc31)C(=O)NCC2` showed an IC50 (read-out: IC50) of 20 µM.
`O=C(NCCN1CCCCC1)c1cccc(-c2nc3cccc4c3n2CCNC4=O)c1` showed an IC50 (read-out: IC50) of 0.376 µM.
`O=C1NCC(c2ccc(F)cc2)c2c[nH]c3cccc1c23` (centres unmarked) was tested, and the IC50 (read-out: IC50) was 0.427 µM.
Work on `O=C1NCCn2c(-c3ccc(-c4ccc(Cl)cc4)o3)nc3cccc1c32` yielded an IC50 (read-out: IC50) of 0.96 µM.
Compound `CN(Cc1ccccc1)Cc1nc2cccc3c2n1CCNC3=O` [drawing 179] has an IC50 (IC50 (μM)) of 0.166 µM.
Work on `Cc1nc2cccc3c2n1CCNC3=O` yielded an IC50 (IC50 (μM)) of 0.141 µM.
With `O=C1NCCn2ccc3cccc1c32` the IC50 (read-out: IC50) was 0.7 µM.
`O=C1NN=Cc2c(Br)[nH]c3cccc1c23` gave an IC50 (read-out: IC50) of 0.026 µM.
In the case of `CN(C)CCN(Cc1ccccc1)Cc1nc2cccc3c2n1CCNC3=O`, the IC50 (read-out: IC50) is reported as 0.153 µM.
Compound `O=C1NCCn2c(C=C(c3ccccc3)c3ccccc3)nc3cccc1c32` has an IC50 (read-out: IC50) of 0.33 µM.
With `O=C1NN=Cc2c(-c3ccccc3)[nH]c3cccc1c23` the IC50 (read-out: IC50) was 0.01 µM.
For `CC(C)N1CCN(c2ccc3[nH]c(=O)c4ccccc4c3n2)CC1`, the IC50 (read-out: IC50) was 0.179 µM.
`O=C1NCCn2c(CN3CCc4ccccc4C3)nc3cccc1c32` was tested, and the IC50 (read-out: IC50) was 0.193 µM.
`Cn1cc2c3c(cccc31)C(=O)NCC2=O` showed an IC50 (read-out: IC50) of 0.028 µM.
In the case of `O=C1NCCn2c(C3CCCCC3)nc3cccc1c32`, the IC50 (read-out: IC50) is reported as 0.204 µM.
With `O=C(NCCN1CCOCC1)c1cccc(-c2nc3cccc4c3n2CCNC4=O)c1` the IC50 (read-out: IC50) was 0.448 µM.
`CN(C)CCCN(C)C(=O)c1cccc(-c2nc3cccc4c3n2CCNC4=O)c1` was tested, and the IC50 (read-out: IC50) was 0.199 µM.
`O=c1[nH]c2ccc(O)nc2c2ccccc12` was tested, and the IC50 (read-out: IC50) was 0.114 µM.
Work on `COc1ccc(/C=C/c2nc3cccc4c3n2CCNC4=O)cc1` yielded an IC50 (read-out: IC50) of 0.142 µM.
`O=C1NN=Cn2cnc3cccc1c32` gave an IC50 (read-out: IC50) of 20 µM.
`O=C1NCCn2c(-c3cc(O)c(O)c(O)c3)nc3cccc1c32` was tested, and the IC50 (read-out: IC50) was 0.324 µM.
For `O=C1NCCn2c(CN3CCN(c4ccccc4)CC3)nc3cccc1c32`, the IC50 (read-out: IC50) was 1.9 µM.
`Cn1cc2c3c(cccc31)C(=O)NCC2O` (centres unmarked) gave an IC50 (read-out: IC50) of 0.79 µM.
In the case of `Cn1c(-c2ccccc2)c2c3c(cccc31)C(=O)NCC2=O`, the IC50 (read-out: IC50) is reported as 0.058 µM.
With `CCN(CC)Cc1nc2cccc3c2n1CCNC3=O` the IC50 (read-out: IC50) was 0.535 µM.
Compound `O=C1NCCn2c(-c3cccc(Cl)c3)nc3cccc1c32` has an IC50 (read-out: IC50) of 0.08 µM.
Work on `CN(C)Cc1nc2cccc3c2n1CCNC3=O` yielded an IC50 (read-out: IC50) of 0.068 µM.
Work on `O=C1NCCn2c(CN3CCCCCCC3)nc3cccc1c32` yielded an IC50 (read-out: IC50) of 0.6 µM.
`CC(Cc1nc2cccc3c2n1CCNC3=O)c1ccccc1` (centres unmarked) showed an IC50 (read-out: IC50) of 0.13 µM.
With `O=C1NCCn2c(-c3ccc(Br)cc3)nc3cccc1c32` the IC50 (read-out: IC50) was 0.054 µM.
For `O=C(O)CCc1nc2cccc3c2n1CCNC3=O`, the IC50 (read-out: IC50) was 1.44 µM.
`COC1CNC(=O)c2cccc3c2c1cn3C` (centres unmarked) showed an IC50 (read-out: IC50) of 4.6 µM.
In the case of `O=C1NN=Cc2c(Br)n(Cc3ccccc3)c3cccc1c23`, the IC50 (read-out: IC50) is reported as 20 µM.
`O=C1NCCn2c(-c3ccccc3F)nc3cccc1c32` was tested, and the IC50 (read-out: IC50) was 0.329 µM.
`CN(Cc1nc2cccc3c2n1CCNC3=O)C1CCCCC1` gave an IC50 (read-out: IC50) of 0.46 µM.
Work on `Cc1cccc(-c2nc3cccc4c3n2CCNC4=O)c1` yielded an IC50 (read-out: IC50) of 0.097 µM.
For `O=C1NCCn2c(-c3cccc(C(=O)N4CC5CC4CN5Cc4ccccc4)c3)nc3cccc1c32` (centres unmarked), the IC50 (read-out: IC50) was 0.405 µM.
`O=C1NN=C(CN2CCN(c3ccccn3)CC2)c2c[nH]c3cccc1c23` [drawing 105] was tested, and the IC50 (read-out: IC50) was 0.025 µM.
Work on `Nc1cnc2c(c1)[nH]c(=O)c1ccccc12` yielded an IC50 (read-out: IC50) of 0.18 µM.
For `O=C1NN=C(CN2CCCC2)c2c[nH]c3cccc1c23`, the IC50 (read-out: IC50) was 0.033 µM.
`O=C1NCCn2c(-c3ccc(Br)s3)nc3cccc1c32` showed an IC50 (read-out: IC50) of 0.094 µM.
`CCN(CC)CCCNC(=O)c1cccc(-c2nc3cccc4c3n2CCNC4=O)c1` gave an IC50 (read-out: IC50) of 0.179 µM.
In the case of `O=C(NCCN1CCCC1)c1cccc(-c2nc3cccc4c3n2CCNC4=O)c1`, the IC50 (read-out: IC50) is reported as 0.321 µM.
For `CCCCN(CCCC)Cc1nc2cccc3c2n1CCNC3=O`, the IC50 (read-out: IC50) was 1.75 µM.
Work on `CCN1CCN(CC2=NNC(=O)c3cccc4[nH]cc2c34)CC1` yielded an IC50 (read-out: IC50) of 0.06 µM.
With `O=C1NCCn2c(-c3ccc([N+](=O)[O-])o3)nc3cccc1c32` the IC50 (read-out: IC50) was 0.021 µM.
`CC(C)(C)OC(=O)n1cc2c3c(cccc31)C(=O)NN=C2` gave an IC50 (read-out: IC50) of 1.2 µM.
With `O=C1NCCn2c(CN3CC4CC3CN4Cc3ccccc3)nc3cccc1c32` (centres unmarked) the IC50 (read-out: IC50) was 0.115 µM.
For `O=C1CNC(=O)c2cccc3[nH]cc1c23`, the IC50 (read-out: IC50) was 0.035 µM.
Compound `O=C1NN=C(c2ccccc2)c2c[nH]c3cccc1c23` has an IC50 (read-out: IC50) of 0.021 µM.
With `COc1ccc(N(C)Cc2nc3cccc4c3n2CCNC4=O)cc1` the IC50 (read-out: IC50) was 0.121 µM.
`CN(C)CCCN(C)Cc1nc2cccc3c2n1CCNC3=O` showed an IC50 (read-out: IC50) of 0.473 µM.
`O=C1NCCn2c(CN3CCCCC3CO)nc3cccc1c32` (centres unmarked) gave an IC50 (read-out: IC50) of 0.337 µM.
Compound `O=C1NCCn2c(CN3CCCCC3)nc3cccc1c32` has an IC50 (read-out: IC50) of 0.801 µM.
Compound `Cn1cc2c3c(cccc31)C(=O)NN=C2` has an IC50 (read-out: IC50) of 0.146 µM.
For `O=C1NN=Cc2cn(Cc3ccccc3)c3cccc1c23`, the IC50 (read-out: IC50) was 13 µM.
For `O=C1NCCn2c(CN3CCN(Cc4ccc5c(c4)OCO5)CC3)nc3cccc1c32`, the IC50 (read-out: IC50) was 0.12 µM.
In the case of `O=C1NN=C(CN2CCOCC2)c2c[nH]c3cccc1c23`, the IC50 (read-out: IC50) is reported as 0.037 µM.
Work on `O=C1NCCN2CCc3cccc1c32` yielded an IC50 (read-out: IC50) of 2.41 µM.
`O=C1CCN(Cc2nc3cccc4c3n2CCNC4=O)CC1` gave an IC50 (read-out: IC50) of 0.329 µM.
With `O=C1NCCn2c(Cc3ccccc3)nc3cccc1c32` the IC50 (IC50 (μM)) was 0.108 µM.
In the case of `O=C1NC=Cc2c[nH]c3cccc1c23`, the IC50 (read-out: IC50) is reported as 0.161 µM.
Work on `O=C1NCCn2c(O)nc3cccc1c32` yielded an IC50 (read-out: IC50) of 1.4 µM.
`O=C(O)c1cccc(-c2nc3cccc4c3n2CCNC4=O)c1` was tested, and the IC50 (read-out: IC50) was 0.155 µM.
Compound `O=C1NCCn2c(-c3ccc(O)cc3O)nc3cccc1c32` has an IC50 (read-out: IC50) of 0.186 µM.
`O=C1NCCn2c(CN3CCCCCC3)nc3cccc1c32` was tested, and the IC50 (read-out: IC50) was 1 µM.
`COC(=O)C1CN(Cc2nc3cccc4c3n2CCNC4=O)CCC1=O` (centres unmarked) was tested, and the IC50 (read-out: IC50) was 0.441 µM.
`COc1cc2c(cc1OC)CN(Cc1nc3cccc4c3n1CCNC4=O)CC2` was tested, and the IC50 (read-out: IC50) was 0.713 µM.
